According to US7928103B2, “Compounds which modulate the CB2 receptor” (Boehringer Ingelheim International GmbH, priority 2006, dated 2011):

Legend:
[1] = target: T1, human CB2R (Homo sapiens, UniProt P34972); test: CB2R mediated modulation of cAMP synthesis; assay type: cell-based; set-up: host or cells: CHO cells; settings: agonists decrease forskolin induced production of cAMP; CHO cells expressing human CB2R
Protocol: B. CB2R Mediated Modulation of cAMP Synthesis:
Compounds of the invention were evaluated for their CB2 agonist or inverse agonistic activity in accordance with the following experimental method.
CHO cells expressing human CB2R (Euroscreen) were plated at a density of 5000 cells per well in 384 well plates and incubated overnight at 37° C. After removing the media, the cells were treated with test compounds diluted in stimulation buffer containing 1 mM IBMX, 0.25% BSA and 10 uM Forskolin. The assay was incubated for 30 minutes at 37° C. Cells were lysed and the cAMP concentration was measured using DiscoverX-XS cAMP kit, following the manufacturer's protocol. In this setting, agonists will decrease forskolin induced production of cAMP while inverse agonists will further increase forskolin induced production of cAMP. EC50 of agonists were calculated as follows. The maximal amount of cAMP produced by forskolin compared to the level of cAMP inhibited by 1 uM CP55940 is defined as 100%. The EC50 value of each test compound was determined as the concentration at which 50% of the forskolin-stimulated cAMP synthesis was inhibited. Data was analyzed using a four-parameter logistic model. (Model 205 of XLfit 4.0).

[2] = target: T1, human CB2R; test: Human CB2 receptor binding (3H-CP55940 competition, SPA); set-up: purchased Perkin Elmer Life and Analytical Sciences; host or cells: HEK293 EBNA cells, stably transfected; settings: through the use of the above described assays (CB1/CB2 binding, CB2R and CB1R cAMP); assay not specified further
Protocol: A. Human CB1 and CB2 Receptor Binding:
CB2 membranes were purchased and made from HEK293 EBNA cells stably transfected with human CB2 receptor cDNA (Perkin Elmer Life and Analytical Sciences). CB1 membranes were isolated from HEK cells stably co-transfected with human CB1 receptor and Gα16 cDNA's. The membrane preparation was bound to scintillation beads (Ysi-Poly-L-lysine SPA beads, GE Healthcare) for 4 hours at room temperature in assay buffer containing 50 mM Tris, pH 7.5, 2.5 mM EDTA, 5 mM MgCl2, 0.8% fatty acid free Bovine Serum Albumin. Unbound membrane was removed by washing in assay buffer. Membrane-bead mixture was added to 96-well assay plates in the amounts of 15 ug membrane per well (CB2) or 2.5 ug per well (CB1) and 1 mg SPA bead per well. Compounds were added to the membrane-bead mixture in dose-response concentrations ranging from 1×10^−5 M to 1×10^−10 M with 0.25% DMSO, final. The competition reaction was initiated with the addition of ^3H-CP55940 (Perkin Elmer Life and Analytical Sciences) at a final concentration of 1.5 nM (CB2) or 2.5 nM (CB1). The reaction was incubated at room temperature for 18 hours and read on TopCount NXT plate reader. Total and non-specific binding was determined in the absence and presence of 1.25 uM Win 55212 (Sigma). IC50 values for each compound were calculated as the concentration of compound that inhibits the specific binding of the radioactively labeled ligand to the receptor by 50% using the XLFit 4.1 four parameter logistic model. IC50 values were converted to inhibition constant (Ki) values using Cheng-Prusoff equation.

T1 sequence (P34972 whole entry): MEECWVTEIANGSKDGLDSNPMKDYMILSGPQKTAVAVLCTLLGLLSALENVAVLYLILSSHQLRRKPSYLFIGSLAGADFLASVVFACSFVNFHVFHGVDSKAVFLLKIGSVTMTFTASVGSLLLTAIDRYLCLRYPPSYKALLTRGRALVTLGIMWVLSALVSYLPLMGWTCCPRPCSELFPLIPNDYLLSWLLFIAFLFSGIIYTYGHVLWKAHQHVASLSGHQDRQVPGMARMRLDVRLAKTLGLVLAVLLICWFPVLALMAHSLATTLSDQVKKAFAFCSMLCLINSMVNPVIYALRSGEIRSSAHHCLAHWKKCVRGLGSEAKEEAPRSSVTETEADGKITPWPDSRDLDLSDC

Row | SMILES | found to exhibit agonistic activity [1] | found to exhibit activity [2]
1 | c1ccc([C@H]2CN(Cc3ccc(Nc4cc5ccccc5cn4)nc3)CCO2)cc1 [Example 33, Isoquinolin-3-yl-[5-((S)-2-phenyl-morpholin-4-ylmethyl)-pyridin-2-yl]-amine] | exhibit agonistic activity | exhibit activity
2 | FC(F)(F)Oc1ccccc1Nc1ccc(CN2CCO[C@@H](c3ccccc3)C2)cn1 [Example 32, [5-((S)-2-Phenyl-morpholin-4-ylmethyl)-pyridin-2-yl]-(2-trifluoromethoxy-phenyl)-amine] | exhibit agonistic activity | exhibit activity
3 | c1ccc([C@H]2CN(Cc3ccc(Nc4cccc5ncccc45)nc3)CCO2)cc1 [Example 12, [5-((S)-2-Phenyl-morpholin-4-ylmethyl)-pyridin-2-yl]-quinolin-5-yl-amine] | exhibit agonistic activity | exhibit activity
4 | Clc1ccccc1Nc1ccc(CN2CCO[C@@H](c3ccccc3)C2)cn1 [Example 17, (2-Chloro-phenyl)-[5-((S)-2-phenyl-morpholin-4-ylmethyl)-pyridin-2-yl]-amine] | exhibit agonistic activity | exhibit activity
5 | c1ccc(Oc2ccc(CN3CCO[C@@H](c4ccccc4)C3)cc2)cc1 [Example 34, (S)-4-(4-Phenoxy-benzyl)-2-phenyl-morpholine] | exhibit agonistic activity | exhibit activity
6 | c1ccc([C@H]2CN(Cc3ccc(Nc4cccnc4)nc3)CCO2)cc1 [Example 9, [5-((S)-2-Phenyl-morpholin-4-ylmethyl)-pyridin-2-yl]-pyridin-3-yl-amine] | exhibit agonistic activity | exhibit activity
7 | Cc1cccc(Nc2ccc(CN3CCO[C@@H](c4ccccc4)C3)cn2)c1 [Example 28, [5-((S)-2-Phenyl-morpholin-4-ylmethyl)-pyridin-2-yl]-m-tolyl-amine] | exhibit agonistic activity | exhibit activity
8 | c1ccc([C@H]2CN(Cc3ccc(Nc4cccc5ccccc45)nc3)CCO2)cc1 [Example 6, Naphthalen-1-yl-[5-((S)-2-phenyl-morpholin-4-ylmethyl)-pyridin-2-yl]-amine] | exhibit agonistic activity | exhibit activity
9 | Clc1ccc(Nc2ccc(CN3CCO[C@@H](c4ccccc4)C3)cn2)cc1 [Example 30, (4-Chloro-phenyl)-[5-((S)-2-phenyl-morpholin-4-ylmethyl)-pyridin-2-yl]-amine] | exhibit agonistic activity | exhibit activity
10 | c1ccc([C@H]2CN(Cc3ccc(Nc4ccc5ccccc5c4)nc3)CCO2)cc1 [Example 7, Naphthalen-2-yl-[5-((S)-2-phenyl-morpholin-4-ylmethyl)-pyridin-2-yl]-amine] | exhibit agonistic activity | exhibit activity
11 | Fc1cccc(Nc2ccc(CN3CCO[C@@H](c4ccccc4)C3)cn2)c1 [Example 25, (3-Fluoro-phenyl)-[5-((S)-2-phenyl-morpholin-4-ylmethyl)-pyridin-2-yl]-amine] | exhibit agonistic activity | exhibit activity
12 | Cc1ccc(Nc2ccc(CN3CCO[C@@H](c4ccccc4)C3)cn2)cc1 [Example 31, [5-((S)-2-Phenyl-morpholin-4-ylmethyl)-pyridin-2-yl]-p-tolyl-amine] | exhibit agonistic activity | exhibit activity
13 | c1ccc([C@H]2CN(Cc3ccc(Nc4cccc5cccnc45)nc3)CCO2)cc1 [Example 13, [5-((S)-2-Phenyl-morpholin-4-ylmethyl)-pyridin-2-yl]-quinolin-8-yl-amine] | exhibit agonistic activity | exhibit activity
